Test results as given in patent US9718804B2, “GSK-3 inhibitors” (BRISTOL-MYERS SQUIBB COMPANY, priority 2013, dated 2017).
Like-named read-outs stand apart in the source and are kept apart here.

Assays:
GSK3β = GSK3β (Homo sapiens, UniProt P49841); assay: GSK3β kinase assay (Caliper LabChip, fluoresceinated peptide substrate); assay type: biochemical
In short: (§1)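 IC50 values were derived by non-linear regression from eleven-point dose series. Each reaction was held at room temperature for 20 hours and quenched with EDTA.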

GSK3α = GSK3α (Homo sapiens, UniProt P49840); assay: GSK3α kinase assay (Caliper LabChip, fluoresceinated peptide substrate); assay type: biochemical
In short: as §1

pTau = pTau assay (no method described); assay type: cell-based
[1] = first value of the cell, 250 pM enzyme, 20 uM ATP, 20 hours at room temperature, read-out: GSK3β/α (nM): GSK3β IC50

Sequence of GSK3α (P49840 whole entry, species assumed): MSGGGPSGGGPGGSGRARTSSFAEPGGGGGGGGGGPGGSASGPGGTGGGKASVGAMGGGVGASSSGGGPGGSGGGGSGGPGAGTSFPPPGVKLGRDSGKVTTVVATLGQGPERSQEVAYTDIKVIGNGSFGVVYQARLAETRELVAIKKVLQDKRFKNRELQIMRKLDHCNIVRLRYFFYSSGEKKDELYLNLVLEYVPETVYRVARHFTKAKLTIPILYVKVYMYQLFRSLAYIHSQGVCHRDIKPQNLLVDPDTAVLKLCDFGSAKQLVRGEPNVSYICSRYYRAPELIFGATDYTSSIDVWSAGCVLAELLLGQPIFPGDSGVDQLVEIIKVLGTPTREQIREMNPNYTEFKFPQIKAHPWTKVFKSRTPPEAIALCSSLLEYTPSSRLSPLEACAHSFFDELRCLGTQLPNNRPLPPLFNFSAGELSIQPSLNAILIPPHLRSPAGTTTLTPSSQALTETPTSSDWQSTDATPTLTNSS
Sequence of GSK3β (P49841 whole entry, species assumed): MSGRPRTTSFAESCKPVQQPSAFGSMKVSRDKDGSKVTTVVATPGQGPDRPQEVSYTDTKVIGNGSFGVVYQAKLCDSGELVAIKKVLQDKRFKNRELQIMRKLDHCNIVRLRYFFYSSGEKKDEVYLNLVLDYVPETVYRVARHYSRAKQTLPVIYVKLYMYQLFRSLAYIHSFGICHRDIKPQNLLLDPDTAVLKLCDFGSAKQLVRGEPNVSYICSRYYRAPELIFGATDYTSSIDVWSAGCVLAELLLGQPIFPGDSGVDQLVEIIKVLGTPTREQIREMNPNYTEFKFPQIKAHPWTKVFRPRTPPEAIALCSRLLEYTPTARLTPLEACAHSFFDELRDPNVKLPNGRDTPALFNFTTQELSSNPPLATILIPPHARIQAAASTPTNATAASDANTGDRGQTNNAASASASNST

SMILES: CCC1(c2cc(Cl)ncc2NC(=O)c2ccnc(Nc3ccc(C(F)(F)F)cn3)c2)OCCO1 [Example 79, N-(6-Chloro-4-(2-ethyl-1,3-dioxolan-2-yl)pyridin-3-yl)-2-((5-(trifluoromethyl)pyridin-2-yl)amino)isonicotinamide]
- IC50 (GSK3β; [1]): 0.31 nM
- IC50 (GSK3α): 0.17 nM
- IC50 (pTau): 33 nM

SMILES: N#Cc1ccc(Nc2cc(C(=O)Nc3cnccc3OCC(F)(F)F)ccn2)nc1 [Example 29, 2-((5-Cyanopyridin-2-yl)amino)-N-(4-(2,2,2-trifluoroethoxy)pyridin-3-yl)isonicotinamide]
- IC50 (GSK3β; [1]): 0.69 nM
- IC50 (GSK3α): 0.62 nM
- IC50 (pTau): 16 nM

SMILES: CC[C@@]1(c2cc(Cl)ncc2NC(=O)c2ccnc(Nc3ccc(C(F)(F)F)cn3)c2)OC[C@H](C)O1 [Example 89, N-(6-Chloro-4-((2R,4S)-2-ethyl-4-methyl-1,3-dioxolan-2-yl)pyridin-3-yl)-2-((5-(trifluoromethyl)pyridin-2-yl)amino)isonicotinamide]
- IC50 (GSK3β; [1]): 1.6 nM
- IC50 (GSK3α): 1.7 nM
- IC50 (pTau): 340 nM

SMILES: O=C(Nc1cnsc1-c1ccccc1)c1ccnc(Nc2ccc(C(F)(F)F)cn2)c1 [Example 204, N-(5-Phenylisothiazol-4-yl)-2-((5-(trifluoromethyl)pyridin-2-yl)amino)isonicotinamide]
- IC50 (GSK3β; [1]): 3 nM
- IC50 (GSK3α): 1.7 nM
- IC50 (pTau): 300 nM

SMILES: O=C(Nc1cnc(F)cc1N1CCC(F)(F)CC1)c1ccnc(Nc2ccc(C(F)(F)F)cn2)c1 [Example 71, N-(6-Fluoro-4-(4,4-difluoropiperidin-1-yl)pyridin-3-yl)-2-((5-(trifluoromethyl)pyridin-2-yl)amino)isonicotinamide]
- IC50 (GSK3β; [1]): 1.3 nM
- IC50 (GSK3α): 0.36 nM
- IC50 (pTau): 60 nM

SMILES: O=C(Nc1cncc(-c2ccccc2F)c1)c1ccnc(Nc2ccc(S(=O)(=O)N3CCCCC3)cn2)c1 [Example 159, N-(5-(2-Fluorophenyl)pyridin-3-yl)-2-((5-(piperidin-1-ylsulfonyl)pyridin-2-yl)amino)isonicotinamide]
- IC50 (GSK3β): 3.9 nM
- IC50 (GSK3α): 1.9 nM
- IC50 (pTau): 960 nM

SMILES: O=C(Nc1cncc(-c2ccccc2F)c1)c1ccnc(Nc2ccc(C(F)(F)F)cn2)c1 [Example 127, N-(5-(2-Fluorophenyl)pyridin-3-yl)-2-((5-(trifluoromethyl)pyridin-2-yl)amino)isonicotinamide]
- IC50 (GSK3β; [1]): 11 nM
- IC50 (GSK3α): 6 nM
- IC50 (pTau): 1750 nM

SMILES: O=C(Nc1cnncc1Br)c1ccnc(Nc2ccc(C(F)(F)F)cn2)c1 [Example 197, N-(5-Bromopyridazin-4-yl)-2-((5-(trifluoromethyl)pyridin-2-yl)amino)isonicotinamide]
- IC50 (GSK3β; [1]): 70 nM
- IC50 (GSK3α): 22 nM
- IC50 (pTau): 3500 nM

SMILES: O=C(Nc1cnc(Cl)cc1C1(O)CCOCC1)c1ccnc(Nc2ccc(C(F)(F)F)cn2)c1 [Example 74, N-(6-Chloro-4-(4-hydroxytetrahydro-2H-pyran-4-yl)pyridin-3-yl)-2-((5-(trifluoromethyl)pyridin-2-yl)amino)isonicotinamide]
- IC50 (GSK3β; [1]): 3.4 nM
- IC50 (GSK3α): 2.5 nM
- IC50 (pTau): 180 nM

SMILES: CC1(c2cc(OCCO)ncc2NC(=O)c2ccnc(Nc3ccc(C(F)(F)F)cn3)c2)OCCO1 [Example 84, N-(6-(2-Hydroxyethoxy)-4-(2-methyl-1,3-dioxolan-2-yl)pyridin-3-yl)-2-((5-(trifluoromethyl)pyridin-2-yl)amino)isonicotinamide]
- IC50 (GSK3β; [1]): 9.2 nM
- IC50 (GSK3α): 5 nM
- IC50 (pTau): 350 nM

SMILES: O=C(Nc1cnccc1S(=O)(=O)CC(F)(F)F)c1ccnc(Nc2ccc(C(F)(F)F)cn2)c1 [Example 184, N-(4-((2,2,2-Trifluoroethyl)sulfonyl)pyridin-3-yl)-2-((5-(trifluoromethyl)pyridin-2-yl)amino)isonicotinamide]
- IC50 (GSK3β; [1]): 120 nM
- IC50 (GSK3α): 4.8 nM
- IC50 (pTau): 130 nM

SMILES: CC1(c2cc(Cl)ncc2NC(=O)c2ccnc(Nc3ccc(C(F)(F)F)cn3)c2)OCCO1 [Example 76, N-(6-Chloro-4-(2-methyl-1,3-dioxolan-2-yl)pyridin-3-yl)-2-((5-(trifluoromethyl)pyridin-2-yl)amino)isonicotinamide]
- IC50 (GSK3β; [1]): 0.32 nM
- IC50 (GSK3α): 0.2 nM
- IC50 (pTau): 13 nM

SMILES: CCOc1ccncc1NC(=O)c1ccnc(Nc2ccc(C(F)(F)F)cn2)c1 [Example 15, N-(4-Ethoxypyridin-3-yl)-2-((5-trifluoromethylpyridin-2-yl)amino)isonicotinamide]
- IC50 (GSK3β; [1]): 1.3 nM
- IC50 (GSK3α): 0.56 nM
- IC50 (pTau): 42 nM

SMILES: Cc1cc(N2CCC(F)(F)CC2)c(NC(=O)c2ccnc(Nc3ccc(C(F)(F)F)cn3)c2)cn1 [Example 72, N-(6-Methyl-4-(4,4-difluoropiperidin-1-yl)pyridin-3-yl)-2-((5-(trifluoromethyl)pyridin-2-yl)amino)isonicotinamide]
- IC50 (GSK3β; [1]): 3.5 nM
- IC50 (GSK3α): 0.76 nM
- IC50 (pTau): 120 nM

SMILES: C[C@H]1CO[C@](c2cc(Cl)ncc2NC(=O)c2ccnc(Nc3ccc(C(F)(F)F)cn3)c2)(C2CC2)O1 [Example 97, N-(6-Chloro-4-((2R,4S)-2-cyclopropyl-4-methyl-1,3-dioxolan-2-yl)pyridin-3-yl)-2-((5-(trifluoromethyl)pyridin-2-yl)amino)isonicotinamide]
- IC50 (GSK3β; [1]): 1.5 nM
- IC50 (GSK3α): 0.56 nM
- IC50 (pTau): 84 nM

SMILES: N#Cc1cccc(Nc2cc(C(=O)Nc3cncc(-c4ccccc4F)c3)ccn2)n1 [Example 152, 2-((6-Cyanopyridin-2-yl)amino)-N-(5-(2-fluorophenyl)pyridin-3-yl)isonicotinamide]
- IC50 (GSK3β; [1]): 1.6 nM
- IC50 (GSK3α): 0.87 nM
- IC50 (pTau): 260 nM

SMILES: O=C(Nc1cncc(-c2ccccc2Cl)c1)c1ccnc(Nc2ccc(C(F)(F)F)cn2)c1 [Example 128, N-(5-(2-Chlorophenyl)pyridin-3-yl)-2-((5-(trifluoromethyl)pyridin-2-yl)amino)isonicotinamide]
- IC50 (GSK3β; [1]): 12 nM
- IC50 (GSK3α): 16 nM
- IC50 (pTau): 2180 nM

SMILES: CC(=O)c1c(NC(=O)c2ccnc(Nc3ccc(C(F)(F)F)cn3)c2)cnn1C [Example 206, N-(5-Acetyl-1-methyl-1H-pyrazol-4-yl)-2-((5-(trifluoromethyl)pyridin-2-yl)amino)isonicotinamide]
- IC50 (GSK3β; [1]): 3.1 nM
- IC50 (GSK3α): 2.7 nM
- IC50 (pTau): 400 nM

SMILES: COc1ccc(-c2ccncc2NC(=O)c2ccnc(Nc3ccc(C(F)(F)F)cn3)c2)c(F)c1 [Example 55, N-(4-(2-Fluoro-4-methoxy-phenyl)pyridin-3-yl)-2-((5-(trifluoromethyl)pyridin-2-yl)amino)isonicotinamide]
- IC50 (GSK3β; [1]): 3.2 nM
- IC50 (GSK3α): 0.89 nM
- IC50 (pTau): 86 nM

SMILES: CC(C)C(O)c1cc(Cl)ncc1NC(=O)c1ccnc(Nc2ccc(C(F)(F)F)cn2)c1 (stereo not drawn) [Example 103, N-(6-Chloro-4-(1-hydroxy-2-methylpropyl)pyridin-3-yl)-2-((5-(trifluoromethyl)pyridin-2-yl)amino)isonicotinamide]
- IC50 (GSK3β; [1]): 6.7 nM
- IC50 (GSK3α): 3.9 nM
- IC50 (pTau): 540 nM

SMILES: O=C(Nc1cnc(F)cc1OCC(F)F)c1ccnc(Nc2ccc(C(F)(F)F)cn2)c1 [Example 80, N-(4-(2,2-Difluoroethoxy)-6-fluoropyridin-3-yl)-2-((5-(trifluoromethyl)pyridin-2-yl)amino)isonicotinamide]
- IC50 (GSK3β; [1]): 6.2 nM
- IC50 (GSK3α): 3.3 nM
- IC50 (pTau): 86 nM

SMILES: O=C(Nc1cnccc1-c1ccccc1)c1cc(Nc2ccc(C(F)(F)F)cn2)ncc1F [Example 167, 5-Fluoro-N-(4-phenylpyridin-3-yl)-2-((5-(trifluoromethyl)pyridin-2-yl)amino)isonicotinamide]
- IC50 (GSK3β; [1]): 1.8 nM
- IC50 (GSK3α): 0.55 nM
- IC50 (pTau): 230 nM
